“Also recorded” adds a separate entry of the source. Read-outs that look alike come from different tables or passages of the source. Numbered stars: 1 amine (or outer) side, 2 acyl side, 3 side chain; on linkers, the order of the positions; unused ones are H or OH. Bridge positions count the residues as written; N and C are the ends. Square brackets hold non-standard residues; d marks the D form. Peptide text beside a SMILES is read from it. * marks the point of attachment. X1 = COc1cc2cc(c1Cl)N(C)C(=O)C[C@H](OC(=O)[C@H](C)N(C)C(=O)CCC(C)(C)SSCCCC(=O)*)[C@]1(C)O[C@H]1[C@H](C)[C@@H]1C[C@@](O)(NC(=O)O1)[C@H](OC)/C=C/C=C(\C)C2; X2 = COc1cc2cc(c1Cl)N(C)C(=O)C[C@H](OC(=O)[C@H](C)N(C)C(=O)CCC(C)SSC(C)CCC(=O)*)[C@]1(C)O[C@H]1[C@H](C)[C@@H]1C[C@@](O)(NC(=O)O1)[C@H](OC)/C=C/C=C(\C)C2; X3 = COc1cc2cc(c1Cl)N(C)C(=O)C[C@H](OC(=O)[C@H](C)N(C)C(=O)CCSSCCCC(=O)*)[C@]1(C)O[C@H]1[C@H](C)[C@@H]1C[C@@](O)(NC(=O)O1)[C@H](OC)/C=C/C=C(\C)C2; 1Nal = N[C@@H](Cc1cccc2ccccc12)C(=O)O; TBMB = c1c(C[*:1])cc(C[*:3])cc1C[*:2]; Tle = CC(C)(C)[C@H](N)C(=O)O; βAla = NCCC(=O)O; Sar = CNCC(=O)O
Columns and labels:
[1] = Plasma stability, quantitative LC-MS (Method #2); type: in vitro ADME, human; conditions: for t1/2 (hrs) (human plasma): Table 16, incubation up to 24 hrs, 4 μM; for degradation half-life in human plasma: refers to Table 16
Description: (§1) […] […] Prior to LC-MS analysis, samples were defrosted, and mixed with 3 volumes (here, 120 μL) of 1:1 acetonitrile/MeOH water. The milky suspensions were centrifuged for 30 min at 13000 rpm, and peptide-containing supernatants were quantitated for doubly/triply charged species and MS/MS fragments thereof using a Waters Xevo TQ-D instrument, while using a plasma extracted standard curve of the same peptides as a reference. The half-life of degradation in plasma was used to assess the comparative stability of the molecules.

[2] = Plasma stability, quantitative LC-MS (Method #2); type: in vitro ADME, mouse; conditions: Table 16; incubation up to 24 hrs, 4 μM
Description: as §1

MT1-MMP hemopexin domain = target: T1, MT1-MMP hemopexin domain (Homo sapiens, UniProt P50281); assay: Competition assay using fluorescence polarisation; type: binding
T1 construct: residues Cys319-Gly511 from the human gene; His6 (N); made in house; host or cells: HEK293 (transient), pEXPR-IBA42 vector
In short: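 Pre-formed PEX–fluorescent tracer complex titrated with non-fluoresceinated bicyclic peptide, which displaces tracer and lowers fluorescence polarisation. Competitor Kd obtained by fitting to the cubic-equation solution for tracer/titrant/protein equilibria, using tracer Kd from separate direct-binding FP.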

[3] = Plasma stability, quantitative LC-MS; type: in vitro ADME, rat; conditions: Table 16; incubation up to 24 hrs, 4 μM
[4] = tested on: HT-1080 xenograft tumours; assay: Efficacy in HT-1080 xenograft mice; type: in vivo, mouse; conditions: HT1080 xenograft
Description: Balb/c nude mice bearing subcutaneous HT-1080 xenograft tumours were treated with BDCs or vehicle (PBS). BDCs were dosed 3 times weekly for 2 weeks, dosing initiated when tumours measured approx. 150-200 mm^3. Mice were monitored, and measurements of tumour volume and body weight recorded 3 times a week.

[5] = Relative stability to DTT of Bicycle Drug Conjugates, quantitative LC-MS; type: physicochemical; conditions: Bicycle Drug Conjugates containing the disulphide linker
Description: The four BDCs were assessed for several in vitro parameters such as retention of potency to the human MT1-MMP hemopexin domain, stability in ex vivo mouse, rat and human plasma, and stability to reducing agents such as dithiothreitol.

[6] = cited from earlier work; for reduction in sensitivity to a reducing agent such as dithiothreitol (compared to the non-hindered disulphide): in the antibody drug conjugate context; for Relative Stability to DTT (ADC): values relate to antibody drug conjugates containing the disulphide linker
[7] = tested on: human lung squamous cell carcinoma line EBC-1; assay: Efficacy in EBC-1 xenograft mice; type: in vivo, mouse
Description: All BDCs containing the stabilised bicycle core sequence were tested for their efficacies in in vivo mouse xenograft models, using the human lung squamous cell carcinoma line EBC-1.
The area under the curve (AUC) of tumour volume over time and BDC was taken and plotted against the corresponding dose group (FIG. 13).

[8] = target: T2, hemopexin domain of MT1-MMP (Homo sapiens, UniProt P50281); assay: Hemopexin binding assay using the alpha screen; conditions: qualitative
T2 construct: residues Cys319-Gly511 from the human gene; His6 (N); made in house; host or cells: HEK293 (transient), pEXPR-IBA42 vector
Description: Employing previously established methods for generating bicyclic peptide phage libraries, selections were performed against the human hemopexin domain of MT1-MMP.
The most frequently occurring sequences were assayed for Hemopexin binding using the alpha screen, where all signals were high compared to the original 17-69 sequence (see Table 1 and FIG. 14): […]

[9] = plasma samples from mice dosed intravenously (0.5, 1 and 2 hrs); conditions: male CD1 mice, up to 2 hrs
[10] = plasma samples taken at t=0.5, 1 and 2 hrs from intravenously dosed mice; conditions: male CD1 mice, up to 2 hrs
rat plasma = conditions: up to 24 hrs
mouse plasma = conditions: up to 24 hrs
human plasma = conditions: up to 24 hrs
[11] = Table 16, footnote e: 17-69-07-N004 as tracer in FP competition, read-out: Kd (nM) (Hemopexin domain)

C[C@H](NC(=O)CN(C)C(=O)CN(C)C(=O)CN(C)C(=O)CN(C)C(=O)CN(C)C(=O)CN(C)C(=O)CN(C)C(=O)CN(C)C(=O)CN(C)C(=O)CN(C)C(=O)CCN)C(=O)N[C@H]1CSCc2cc3cc(c2)CSC[C@H](NC(=O)[C@@H](C)NC(=O)[C@H](Cc2cccc4ccccc24)NC(=O)[C@H](CCC(=O)O)NC(=O)[C@H](CC(N)=O)NC(=O)[C@@H](C)NC1=O)C(=O)N[C@@H](CCC(=O)O)C(=O)N[C@@H](CC(=O)O)C(=O)N[C@@H](Cc1ccccc1)C(=O)N[C@@H](Cc1ccc(O)cc1)C(=O)N[C@@H](CC(=O)O)C(=O)N[C@@H](C(C)(C)C)C(=O)N[C@H](C(N)=O)CSC3 [17-69-07-N241, bAla-Sar10-A-(17-69-07) D-Ala1 1Nal4 D-Ala5 tBuGly11] (H-[βAla][Sar][Sar][Sar][Sar][Sar][Sar][Sar][Sar][Sar][Sar]AC[dA]NE[1Nal][dA]CEDFYD[Tle]C-NH2; linker 13-19-26 via TBMB)
t1/2 (hrs) (human plasma) [1]: >36 h | t1/2 (hrs) (mouse plasma) [2]: >36 h | Kd (MT1-MMP hemopexin domain; Table 12, molecules selected for plasma stability assessment, read-out: Kd): 1.21 ± 0.24 nM | Kd (MT1-MMP hemopexin domain; [11]): 1.4 ± 0.3 nM | species cross-reactivity (MT1-MMP hemopexin domain; murine, dog, cynomolgus and human MT1-MMP): fully cross reactive | t1/2 (hrs) (rat plasma) [3]: >36 h

CC[C@H](C)[C@@H]1NC(=O)[C@H](CC(=O)O)NC(=O)[C@H](Cc2ccc(O)cc2)NC(=O)[C@H](Cc2ccccc2)NC(=O)[C@H](CC(=O)O)NC(=O)[C@H](CCC(=O)O)NC(=O)[C@@H]2CSCc3cc(cc(c3)CSC[C@H](NC(=O)[C@H](C)NC(=O)CN(C)C(=O)CN(C)C(=O)CN(C)C(=O)CN(C)C(=O)CN(C)C(=O)CN(C)C(=O)CN(C)C(=O)CN(C)C(=O)CN(C)C(=O)CN(C)C(=O)CNC(=O)CCCSSCCC(=O)N(C)[C@@H](C)C(=O)O[C@H]3CC(=O)N(C)c4cc(cc(OC)c4Cl)C/C(C)=C/C=C/[C@@H](OC)[C@@]4(O)C[C@H](OC(=O)N4)[C@@H](C)[C@@H]4O[C@@]34C)C(=O)N[C@@H](Cc3ccc(O)cc3)C(=O)N[C@@H](CC(N)=O)C(=O)N[C@@H](CCC(=O)O)C(=O)N[C@@H](Cc3ccccc3)C(=O)NCC(=O)N2)CSC[C@@H](C(N)=O)NC1=O [BT17BDC-9] (X3-G[Sar][Sar][Sar][Sar][Sar][Sar][Sar][Sar][Sar][Sar]ACYNEFGCEDFYDIC-NH2; linker 13-19-26 via TBMB)
weight of the animals [4]: largely stable | tumour volume ([4]; compared to vehicle control, listed as BDC17BDC-9): significant reduction in tumour volume after 9 days post injection; also recorded: Tumours were completely cleared by day 14

COc1cc2cc(c1Cl)N(C)C(=O)C[C@H](OC(=O)[C@H](C)N(C)C(=O)CCC(C)(C)SSCCCC(=O)NCCC(=O)N(C)CC(=O)N(C)CC(=O)N(C)CC(=O)N(C)CC(=O)N(C)CC(=O)N(C)CC(=O)N(C)CC(=O)N(C)CC(=O)N(C)CC(=O)N(C)CC(=O)N[C@@H](C)C(=O)N[C@H]1CSCc3cc4cc(c3)CSC[C@H](NC(=O)[C@@H](C)NC(=O)[C@H](Cc3cccc5ccccc35)NC(=O)[C@H](CCC(=O)O)NC(=O)[C@H](CC(N)=O)NC(=O)[C@@H](C)NC1=O)C(=O)N[C@@H](CCC(=O)O)C(=O)N[C@@H](CC(=O)O)C(=O)N[C@@H](Cc1ccccc1)C(=O)N[C@@H](Cc1ccc(O)cc1)C(=O)N[C@@H](CC(=O)O)C(=O)N[C@@H](C(C)(C)C)C(=O)N[C@H](C(N)=O)CSC4)[C@]1(C)O[C@H]1[C@H](C)[C@@H]1C[C@@](O)(NC(=O)O1)[C@H](OC)/C=C/C=C(\C)C2 [BT17BDC-19] ({X1-βAla}-[Sar][Sar][Sar][Sar][Sar][Sar][Sar][Sar][Sar][Sar]AC[dA]NE[1Nal][dA]CEDFYD[Tle]C-NH2; linker 12-18-25 via TBMB)
degradation half-life in human plasma [1]: > 14 h | Relative Stability to DTT (BDC) [5]: 30 | reduction in sensitivity to a reducing agent such as dithiothreitol (compared to the non-hindered disulphide) [6]: 14 fold | Relative Stability to DTT (ADC) [6]: 14 | t1/2 (hrs) (mouse plasma) [2]: >36 h | efficacy, tumour clearance [7]: efficacious and cleared tumours in 9 days | tolerability, body weight [7]: well tolerated at efficacious doses | Kd (MT1-MMP hemopexin domain; [11]): 0.5 nM | t1/2 (hrs) (rat plasma) [3]: >36 h

COc1cc2cc(c1Cl)N(C)C(=O)C[C@H](OC(=O)[C@H](C)N(C)C(=O)CCC(C)SSC(C)CCC(=O)NCCC(=O)N(C)CC(=O)N(C)CC(=O)N(C)CC(=O)N(C)CC(=O)N(C)CC(=O)N(C)CC(=O)N(C)CC(=O)N(C)CC(=O)N(C)CC(=O)N(C)CC(=O)N[C@@H](C)C(=O)N[C@H]1CSCc3cc4cc(c3)CSC[C@H](NC(=O)[C@@H](C)NC(=O)[C@H](Cc3cccc5ccccc35)NC(=O)[C@H](CCC(=O)O)NC(=O)[C@H](CC(N)=O)NC(=O)[C@@H](C)NC1=O)C(=O)N[C@@H](CCC(=O)O)C(=O)N[C@@H](CC(=O)O)C(=O)N[C@@H](Cc1ccccc1)C(=O)N[C@@H](Cc1ccc(O)cc1)C(=O)N[C@@H](CC(=O)O)C(=O)N[C@@H](C(C)(C)C)C(=O)N[C@H](C(N)=O)CSC4)[C@]1(C)O[C@H]1[C@H](C)[C@@H]1C[C@@](O)(NC(=O)O1)[C@H](OC)/C=C/C=C(\C)C2 (stereo partly drawn) [BT17BDC-20] ({X2-βAla}-[Sar][Sar][Sar][Sar][Sar][Sar][Sar][Sar][Sar][Sar]AC[dA]NE[1Nal][dA]CEDFYD[Tle]C-NH2; linker 12-18-25 via TBMB)
t1/2 (hrs) (human plasma) [1]: 32 ± 1 h | degradation half-life in human plasma [1]: > 14 h | Relative Stability to DTT (BDC) [5]: 93 | reduction in sensitivity to a reducing agent such as dithiothreitol (compared to the non-hindered disulphide) [6]: 170 fold | Relative Stability to DTT (ADC) [6]: 170 | t1/2 (hrs) (mouse plasma) [2]: >36 h | efficacy, tumour clearance [7]: not efficacious and only caused a marginal reduction in tumour sizes | tolerability, body weight [7]: tolerated based on constant weight | Kd (MT1-MMP hemopexin domain; Table 16, footnote f: 17-69-07-N040 as tracer in FP competition, read-out: Kd (nM) (Hemopexin domain)): 2.95 ± 1.3 nM | t1/2 (hrs) (rat plasma) [3]: 34 ± 4 h

CC[C@H](C)[C@@H]1NC(=O)[C@H](CC(=O)O)NC(=O)[C@H](Cc2ccc(O)cc2)NC(=O)[C@H](Cc2ccccc2)NC(=O)[C@H](CC(=O)O)NC(=O)[C@H](CCC(=O)O)NC(=O)[C@@H]2CSCc3cc(cc(c3)CSC[C@H](N)C(=O)N[C@@H](CCCCN)C(=O)N[C@@H](CC(N)=O)C(=O)N[C@@H](CCCNC(=N)N)C(=O)NCC(=O)N[C@@H](Cc3ccccc3)C(=O)NCC(=O)N2)CSC[C@@H](C(N)=O)NC1=O [Peptide 17-69] (H-CKNRGFGCEDFYDIC-NH2; linker 1-8-15 via TBMB)
alpha screen binding signal [8]: qualitative binding to the target was verified

Ac-CYNEFGCEDFYDIC
fragment found [9]: excision of YNEFG in loop 1 (entire loop removed); also recorded: excision of EDFYDI in loop 2 (entire loop removed), minor | fragment found [10]: excision of YNE in loop 1, major; also recorded: excision of YNEF in loop 1; also recorded: excision of YNEFG in loop 1 (the entire loop is removed); also recorded: excision of YD in loop 2, minor; also recorded: excision of FYD in loop 2, minor; also recorded: excision of YDI in loop 2, minor; also recorded: excision of EDFYDI in loop 2 (the entire loop is removed), minor

βAla-Sar10-A-C(D-Ala)NE(1Nal)(D-Ala)CEDFYD(tBuGly)C
not cleaved (rat plasma): stable; t1/2 >36 hrs (rat plasma) | not cleaved (mouse plasma): stable; t1/2 >36 hrs (mouse plasma) | not cleaved (human plasma): stable; t1/2 >36 hrs (human plasma)

Reference: patent publication US10532106B2 (priority 2014, dated 2020)
